{"source": "patent US20210038587A1", "about": "“METHODS AND COMPOSITIONS FOR TREATING NON-ERK MAPK PATHWAY INHIBITOR-RESISTANT CANCERS” (BIOMED VALLEY DISCOVERIES, INC., priority 2013, published 2021)", "test_in_all_cases": "Reverse Phase Protein Analysis (RPPA)", "type_in_all_cases": "cell-based", "key": {"AN3Ca": {"test_system": "AN3Ca", "conditions": "% change from DMSO (matched cell line)", "experimental": "(§1) Control wells were treated with DMSO at 0.1% (v/v) for 6 hours prior to cell lysate generation. Samples were then analyzed using reverse-phase protein microarray technology (Theranostics Health).\n(§2) Cell lines with common alterations in BRAF and RAS were assayed: BRAF^V600E mutant lines A375, Colo205, and HT29; KRAS^G12C-mutant cell line MIAPACa-2; KRAS^G13D-mutant cell line HCT116; and AN3Ca with atypical HRAS^F82L mutation. Changes in protein levels are shown as a percentage change from dimethyl sulfoxide (DMSO)-treated parental control (FIG. 32A and Table 23)."}, "HT29": {"test_system": "HT29", "conditions": "% change from DMSO (matched cell line)", "experimental": "as §1, §2"}, "MIAPaCa-2": {"test_system": "MIAPaCa-2", "conditions": "MIAPaca2; % change from DMSO (matched cell line)"}}}
{"molecule": "O=C(Nc1ccc2[nH]nc(-c3ccncc3)c2c1)[C@@H]1CCN(CC(=O)N2CCN(c3ccc(-c4ncccn4)cc3)CC2)C1", "note": "[SCH772984]", "values": [{"measurement": "Avg(p70 S6 Kinase T389 T412)", "setting": "AN3Ca", "value": "−16.63", "unit": "%"}, {"measurement": "Avg (4ebp1 T70)", "setting": "HT29", "value": "−40.58", "unit": "%"}, {"measurement": "Avg (Akt S473)", "setting": "HT29", "value": "−22.14", "unit": "%"}, {"measurement": "Avg (Akt)", "setting": "HT29", "value": "−16.93", "unit": "%"}, {"measurement": "Avg (Bad S136)", "setting": "HT29", "value": 9.67, "unit": "%"}, {"measurement": "Avg (Bad S155)", "setting": "HT29", "value": "−7.98", "unit": "%"}, {"measurement": "Avg (Bak)", "setting": "HT29", "value": 2.78, "unit": "%"}, {"measurement": "Avg (Bax)", "setting": "HT29", "value": "−20.59", "unit": "%"}, {"measurement": "Avg (Bcl 2)", "setting": "HT29", "value": "−10.01", "unit": "%"}, {"measurement": "Avg (Bcl2 S70)", "setting": "HT29", "value": "−11.45", "unit": "%"}, {"measurement": "Avg (Bcl 2 T56)", "setting": "HT29", "value": "−17.9", "unit": "%"}, {"measurement": "Avg (Bim)", "setting": "HT29", "value": 0.69, "unit": "%"}, {"measurement": "Avg (CREB S133)", "setting": "HT29", "value": 9.87, "unit": "%"}, {"measurement": "Avg (Caspase 3 CL D175)", "setting": "HT29", "value": "−7.9", "unit": "%"}, {"measurement": "Avg (Caspase 7 Cl D198)", "setting": "HT29", "value": 7.02, "unit": "%"}, {"measurement": "Avg (Chk1)", "setting": "HT29", "value": 14.64, "unit": "%"}, {"measurement": "Avg (Chk1 S345)", "setting": "HT29", "value": 19.05, "unit": "%"}, {"measurement": "Avg (Cyclin D1)", "setting": "HT29", "value": "−36.66", "unit": "%"}, {"measurement": "Avg (ERK 1 2)", "setting": "HT29", "value": "−37", "unit": "%"}, {"measurement": "Avg (ERK 1 2 T202 Y204)", "setting": "HT29", "value": "−74.84", "unit": "%"}, {"measurement": "Avg (MAK1 S360)", "setting": "HT29", "value": 1.25, "unit": "%"}, {"measurement": "Avg (Mcl1)", "setting": "HT29", "value": 14.05, "unit": "%"}, {"measurement": "Avg (Raptor S792)", "setting": "HT29", "value": "−6.38", "unit": "%"}, {"measurement": "Avg (Raptor)", "setting": "HT29", "value": "−12.18", "unit": "%"}, {"measurement": "Avg (Rictor)", "setting": "HT29", "value": "−13.03", "unit": "%"}, {"measurement": "Avg (Stat1)", "setting": "HT29", "value": 5.79, "unit": "%"}, {"measurement": "Avg (Stat3)", "setting": "HT29", "value": "−2.15", "unit": "%"}, {"measurement": "Avg (bad S112)", "setting": "HT29", "value": "−33.9", "unit": "%"}, {"measurement": "Avg (c Fos)", "setting": "HT29", "value": "−9.26", "unit": "%"}, {"measurement": "Avg (c Myc)", "setting": "HT29", "value": 13.55, "unit": "%"}, {"measurement": "Avg (mTOR S2448)", "setting": "HT29", "value": "−22.65", "unit": "%"}, {"measurement": "Avg (mTOR S2481)", "setting": "HT29", "value": 13.93, "unit": "%"}, {"measurement": "Avg (mTOR)", "setting": "HT29", "value": 9.31, "unit": "%"}, {"measurement": "Avg (p70 S6 Kinase)", "setting": "HT29", "value": "−2.36", "unit": "%"}, {"measurement": "Avg (p90 RSK S380)", "setting": "HT29", "value": "−53.88", "unit": "%"}, {"measurement": "Avg(S6 Ribo Prot S235 236)", "setting": "HT29", "value": "−44.9", "unit": "%"}, {"measurement": "Avg(S6 Ribo Prot S240 244)", "setting": "HT29", "value": "−25.73", "unit": "%"}, {"measurement": "Avg(Tuberin TSC2 Y1571)", "setting": "HT29", "value": 13.25, "unit": "%"}, {"measurement": "Avg(p70 S6 Kinase S371 S394)", "setting": "HT29", "value": "−20.52", "unit": "%"}, {"measurement": "Avg(p70 S6 Kinase T389 T412)", "setting": "HT29", "value": "−9.55", "unit": "%"}, {"measurement": "Avg (4ebp1 T70)", "setting": "MIAPaCa-2", "value": 19.27, "unit": "%"}, {"measurement": "Avg (Akt S473)", "setting": "MIAPaCa-2", "value": 2.84, "unit": "%"}, {"measurement": "Avg (Akt)", "setting": "MIAPaCa-2", "value": 13.47, "unit": "%"}, {"measurement": "Avg (Bad S136)", "setting": "MIAPaCa-2", "value": 8.62, "unit": "%"}, {"measurement": "Avg (Bad S155)", "setting": "MIAPaCa-2", "value": "−1.71", "unit": "%"}, {"measurement": "Avg (Bak)", "setting": "MIAPaCa-2", "value": "−10.88", "unit": "%"}, {"measurement": "Avg (Bax)", "setting": "MIAPaCa-2", "value": 15.67, "unit": "%"}, {"measurement": "Avg (Bcl 2)", "setting": "MIAPaCa-2", "value": 4.96, "unit": "%"}, {"measurement": "Avg (Bcl2 S70)", "setting": "MIAPaCa-2", "value": "−4.23", "unit": "%"}, {"measurement": "Avg (Bcl 2 T56)", "setting": "MIAPaCa-2", "value": "−1.98", "unit": "%"}, {"measurement": "Avg (Bim)", "setting": "MIAPaCa-2", "value": 2.08, "unit": "%"}, {"measurement": "Avg (CREB S133)", "setting": "MIAPaCa-2", "value": "−6.63", "unit": "%"}, {"measurement": "Avg (Caspase 3 CL D175)", "setting": "MIAPaCa-2", "value": 21.05, "unit": "%"}, {"measurement": "Avg (Caspase 7 Cl D198)", "setting": "MIAPaCa-2", "value": 8.35, "unit": "%"}, {"measurement": "Avg (Chk1)", "setting": "MIAPaCa-2", "value": 12.07, "unit": "%"}, {"measurement": "Avg (Chk1 S345)", "setting": "MIAPaCa-2", "value": 13.39, "unit": "%"}, {"measurement": "Avg (Cyclin D1)", "setting": "MIAPaCa-2", "value": "−39.88", "unit": "%"}, {"measurement": "Avg (ERK 1 2)", "setting": "MIAPaCa-2", "value": "−23.09", "unit": "%"}, {"measurement": "Avg (ERK 1 2 T202 Y204)", "setting": "MIAPaCa-2", "value": "−76.71", "unit": "%"}, {"measurement": "Avg (MAK1 S360)", "setting": "MIAPaCa-2", "value": 2.74, "unit": "%"}, {"measurement": "Avg (Mcl1)", "setting": "MIAPaCa-2", "value": "−1.88", "unit": "%"}, {"measurement": "Avg (Raptor S792)", "setting": "MIAPaCa-2", "value": 4.43, "unit": "%"}, {"measurement": "Avg (Raptor)", "setting": "MIAPaCa-2", "value": 17.66, "unit": "%"}, {"measurement": "Avg (Rictor)", "setting": "MIAPaCa-2", "value": "−15.15", "unit": "%"}, {"measurement": "Avg (Stat1)", "setting": "MIAPaCa-2", "value": 7.17, "unit": "%"}, {"measurement": "Avg (Stat3)", "setting": "MIAPaCa-2", "value": "−9.19", "unit": "%"}, {"measurement": "Avg (bad S112)", "setting": "MIAPaCa-2", "value": "−33.07", "unit": "%"}, {"measurement": "Avg (c Fos)", "setting": "MIAPaCa-2", "value": "−8.99", "unit": "%"}, {"measurement": "Avg (c Myc)", "setting": "MIAPaCa-2", "value": 2.11, "unit": "%"}, {"measurement": "Avg (mTOR S2448)", "setting": "MIAPaCa-2", "value": "−11.48", "unit": "%"}, {"measurement": "Avg (mTOR S2481)", "setting": "MIAPaCa-2", "value": 2.43, "unit": "%"}, {"measurement": "Avg (mTOR)", "setting": "MIAPaCa-2", "value": 1.64, "unit": "%"}, {"measurement": "Avg (p70 S6 Kinase)", "setting": "MIAPaCa-2", "value": "−7.51", "unit": "%"}, {"measurement": "Avg (p90 RSK S380)", "setting": "MIAPaCa-2", "value": "−38.58", "unit": "%"}, {"measurement": "Avg(S6 Ribo Prot S235 236)", "setting": "MIAPaCa-2", "value": "−77.57", "unit": "%"}, {"measurement": "Avg(S6 Ribo Prot S240 244)", "setting": "MIAPaCa-2", "value": "−86.61", "unit": "%"}, {"measurement": "Avg(Tuberin TSC2 Y1571)", "setting": "MIAPaCa-2", "value": 8.86, "unit": "%"}, {"measurement": "Avg(p70 S6 Kinase S371 S394)", "setting": "MIAPaCa-2", "value": "−40.47", "unit": "%"}, {"measurement": "Avg(p70 S6 Kinase T389 T412)", "setting": "MIAPaCa-2", "value": "−50.97", "unit": "%"}]}
